Test results: patent US20140024683A1, “CHLORIDE CHANNEL AND CHLORIDE TRANSPORTER MODULATORS FOR THERAPY IN SMOOTH MUSCLE DISEASES” (priority 2011, published 2014)

What was measured:
[1] = system: guinea pig tracheal rings; assay: Potentiation of isoproterenol relaxation of acetylcholine contraction, guinea pig tracheal rings; conditions: 10 μM bumetanide
Experimental: (§1) Animal protocols were approved by the Columbia University Animal Care and Use Committee. Male Hartley guinea pigs weighing approximately 400 g were anesthetized with intraperitoneal injection of sodium pentobarbital (100 mg/kg). Trachea were removed and transferred to ice cold Krebs-Henseleit (KH) buffer of the following composition (in mM): NaCl 118, KCl 5.6, CaCl2 0.5, MgSO4 0.24, NaH2PO4 1.3, NaHCO3 25, glucose 5.6, pH 7.4. Epithelial-denuded tracheal rings were prepared using a dissecting microscope. Epithelium was removed by gently passing cotton fibers through the lumen of the tracheal rings. The rings were suspended in 4 mL-water jacketed organ baths (37° C.: Radnoti Glass Technology, Monrovia, Calif.) and connected to a Grass FT03 force transducer (Grass Telefactor, West Warwick, R.I.) using silk sutures. The transducers were coupled to the computer with BioPac hardware and data was collected using Acqknowledge 7.3.3 software (BioPac Systems, Goleta, Calif.). KH buffer was bubbled with a gas mixture of 95% oxygen and 5% carbon dioxide and buffer was exchanged every 15 minutes for 1 hour during equilibration of tracheal rings at 1 g resting tension. […].
Therefore, we tested whether the chloride channel blockers or modulation of chloride flux could be used in combination with β-agonists to potentiate their effects. […]. Therefore, a combination of treatment with compound 13 and bumetanide potentiated the relaxation effect of isoproterenol.

[2] = system: guinea pig tracheal rings; assay: Attenuation of the initiation of an acetylcholine contraction by pretreatment, guinea pig tracheal rings; conditions: pretreatment with single agent alone
Experimental: as §1
Compounds 1 and 13 were tested for their abilities to attenuate the initiation phase of an acetylcholine contraction, as acetylcholine is a natural bronchoconstrictor and prevention of contraction would have clinical utility. […]

rat lung slices = assay: Airway lumen area in peripheral small airways of rat lung slices; conditions: 100 μM NFA; TEA-induced contraction
Experimental: The measurement of airway contraction of a luminal area of small lung airways using the ex vivo rat lung slice method was performed as described (Perez-Zoghbi et al., 2007). The trachea was cannulated with an intravenous catheter, and after the chest cavity was opened, the collapsed lungs were reinflated with 1.3±0.1 ml of 2% agarose (low-gelling temperature) in Sigma-Hanks' Balanced Salt solution (sHBSS), followed by the injection of 0.2±0.1 of air to flush the agarose-sHBSS out of the airways and into the distal alveolar space. Subsequently, a warm (37° C.) solution of gelatin (type A, porcine skin, 300 bloom, 6% in sHBSS) was perfused through the intrapulmonary blood vessels via the pulmonary artery by injecting about 0.3 ml into the right ventricle. The warm agar and gelatin were gelled with cold sHBSS. A single lung lobe was removed and cut into serial sections of about 130 μm thick with a vibratome at about 4° C., starting at the lung periphery. Slices were maintained in DMEM (Invitrogen) at 37° C. and 10% CO2 for up to 3 days. At 37° C., the gelatin in the blood vessel lumen dissolved, leaving the blood vessel lumen empty. Lung slices were mounted in a custom-made perfusion chamber and held in place with a small sheet of nylon mesh. A second cover glass edged with silicone grease was placed over the lung slice. Perfusion of the lung slice was performed using a gravity-fed perfusion system. The volume of the chamber was about 100 μl with a perfusion rate of about 800 μl/min. […] Digital images were recorded in time lapse (30 frames/min). The area of the bronchiole and arteriole lumen was calculated, from each image, by pixel summing using custom-written software. Experiments were performed at room temperature.

[3] = system: calcium activated chloride channel; assay: Whole cell voltage clamp, spontaneous transient inward currents (STICs) in a single guinea pig airway smooth muscle cell; assay type: cell-based; conditions: about 100 μM bath application after TEA; holding potential about −60 mV
Text: Epithelial denuded guinea pig tracheal rings were suspended in organ baths under 1 g resting tension with continuous digital recordings of muscle force. In separate studies, guinea pig airway smooth muscle cells were enzymatically dispersed and cultured.
Glass-bottom dishes served as a disposable recording chamber. ALA VM-8, an 8-chamber pressure-driven drug application system, was used in a still bath of extracellular salt solution. Whole-cell intracellular voltage recordings under current clamp conditions were performed with a 2-kHz Bessel filter, recording at 10 kHz using an Axopatch 200b amplifier (Axon Instruments, Foster City, Calif., USA). Electrodes were pulled using a P-97 micropipette puller from 1.5-mm OD borosilicate capillary glass (Sutter Instruments, Novato, Calif., USA). Glass electrode resistances ranged from 5 to 10 MO with intracellular solution. Whole-cell intracellular current recordings under voltage-clamp conditions were performed with a 2-kHz Bessel filter, recording at 10 kHz using an Axopatch 200b amplifier. For current measurements (FIG. 11) intracellular solutions consisted of (in mM) 140 TEA-Cl, 5 MgATP, 5 EGTA, 1 MgCl2, 10 HEPES, and 5 CaCl2 (pH 7.2). […] TEA-Cl was included in the buffer to enhance STICs which were then recorded during the addition of 100 μM niflumic acid. […] All recordings were analyzed on Clampfit 8.0 software (Molecular Devices).

[4] = system: human airway smooth muscle cells; assay: FLIPR potentiometric dye membrane potential assay (Examples 9, 12); assay type: cell-based; conditions: 100 μM
Experimental: To determine whether blockade of CaCCs or NKCCs induce membrane potential changes in cultured human airway smooth muscle cells, the FLIPR in vitro fluorescent dye assay (Molecular Devices) was used as described by Wafford et al. (2009). Briefly, human airway smooth muscle cells were grown to 100% confluence in 96-well black-walled plates and were washed with warmed (37° C.) normal-chloride buffer [consisting of (in mM) 130 sodium chloride, 2 CaCl2, 1 MgCl2, 10 D-glucose, and 10 HEPES, pH 7.4] four times. A stock solution (100% dye) of FLIPR blue dye (Molecular Devices) was prepared by reconstitution of 1 vial (125 mg) with 100 ml of the normal-chloride buffer (assay buffer). A 50% working stock was prepared by further diluting the reconstituted blue dye 1:1 with assay buffer and was used to load cells (90 μl/well) over 20 minutes at 37° C. All reagents were dissolved in assay buffer. Baseline fluorescence was measured for 3 minutes prior to the first control additions (assay buffer). […] The fluorescence produced by membrane potential change following solution additions was quantified after subtracting changes induced by assay buffer alone.

CCCCNc1cc(C(=O)O)cc(S(N)(=O)=O)c1Oc1ccccc1 [bumetanide]
shift of the EC50 of isoproterenol [1]: 2.4 fold | attenuation of the initiation of an acetylcholine contraction [2]: failed to significantly attenuate a contraction

O=C(O)c1cccnc1Nc1cccc(C(F)(F)F)c1 [niflumic acid]
relaxation of TEA-contracted peripheral airway (lumen area) (rat lung slices): significantly relaxes the peripheral airway contracted with TEA | spontaneous transient inward currents (STICs) [3]: abolishes STIC's | membrane potential change (FLIPR) [4]: hyperpolarized the cell membrane | membrane potential change (FLIPR) ([4]; listed as NFA): hyperpolarizes the airway smooth muscle cell plasma membrane
